# Experimental data: PubChem BioAssay (NCI)
#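 All cell lines were grown in 96-well plates and treated with compound for 48 hours. The concentration for 50% growth inhibition is given as GI50. TGI marks complete inhibition of growth.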
# Legend:
# Assay in all cases: NCI tumour cell line growth inhibition, 48 h
# NCI-H226 lung = test system: NCI-H226 lung
# EKVX NSCLC = test system: EKVX NSCLC
# T-47D breast = test system: T-47D breast
# NCI-H23 lung = test system: NCI-H23 lung
# BT-549 breast = test system: BT-549 breast
# HT29 colon = test system: HT29 colon
# OVCAR-4 ovarian = test system: OVCAR-4 ovarian
# OVCAR-3 ovarian = test system: OVCAR-3 ovarian
# SK-MEL-2 melanoma = test system: SK-MEL-2 melanoma
# UO-31 renal = test system: UO-31 renal
# OVCAR-8 ovarian = test system: OVCAR-8 ovarian
# A549 NSCLC = test system: A549 NSCLC
# IGROV1 ovarian = test system: IGROV1 ovarian
# OVCAR-5 ovarian = test system: OVCAR-5 ovarian
# HCT-116 colon = test system: HCT-116 colon
# MALME-3M melanoma = test system: MALME-3M melanoma
# HCT-15 colon = test system: HCT-15 colon
# SNB-75 CNS = test system: SNB-75 CNS
# KM12 colon = test system: KM12 colon
# SK-MEL-28 melanoma = test system: SK-MEL-28 melanoma
# CAKI-1 renal = test system: CAKI-1 renal
# UACC-62 melanoma = test system: UACC-62 melanoma
# SF-539 CNS = test system: SF-539 CNS
# TK-10 renal = test system: TK-10 renal
# HL-60(TB) leukemia = test system: HL-60(TB) leukemia
# 786-0 renal = test system: 786-0 renal
# NCI-H460 lung = test system: NCI-H460 lung
# U251 CNS = test system: U251 CNS
# SW-620 colon = test system: SW-620 colon
# SR leukemia = test system: SR leukemia
# SN12C renal = test system: SN12C renal
# SK-MEL-5 melanoma = test system: SK-MEL-5 melanoma
# SK-OV-3 ovarian = test system: SK-OV-3 ovarian
# LOX IMVI melanoma = test system: LOX IMVI melanoma
# HS 578T breast = test system: HS 578T breast
# MDA-MB-435 = test system: MDA-MB-435
# HCC-2998 colon = test system: HCC-2998 colon
# MDA-MB-231 breast = test system: MDA-MB-231 breast
# NCI-H522 lung = test system: NCI-H522 lung
# MOLT-4 leukemia = test system: MOLT-4 leukemia
# M14 melanoma = test system: M14 melanoma
# SNB-19 CNS = test system: SNB-19 CNS
# COLO 205 colon = test system: COLO 205 colon
# SF-295 CNS = test system: SF-295 CNS
# NCI/ADR-RES ovarian = test system: NCI/ADR-RES ovarian
# ACHN renal = test system: ACHN renal
# MCF7 breast = test system: MCF7 breast
# DU-145 prostate = test system: DU-145 prostate
# SF-268 CNS = test system: SF-268 CNS
# K-562 leukemia = test system: K-562 leukemia
# RXF 393 renal = test system: RXF 393 renal
# A498 renal = test system: A498 renal
# UACC-257 melanoma = test system: UACC-257 melanoma
# PC-3 prostate = test system: PC-3 prostate
# CCRF-CEM leukemia = test system: CCRF-CEM leukemia
# HOP-62 NSCLC = test system: HOP-62 NSCLC
# HOP-92 NSCLC = test system: HOP-92 NSCLC
# RPMI-8226 leukemia = test system: RPMI-8226 leukemia
smiles,measurement,setting,value
COc1cc(N)c(Cl)cc1C(=O)N[C@@H]1CCN(CCCOc2ccc(F)cc2)C[C@@H]1OC,GI50,NCI-H226 lung,> 100 µM
same,TGI,NCI-H226 lung,> 100 µM
same,GI50,EKVX NSCLC,> 100 µM
same,TGI,EKVX NSCLC,> 100 µM
same,GI50,T-47D breast,27.3 µM
same,TGI,T-47D breast,> 100 µM
same,GI50,NCI-H23 lung,> 100 µM
same,TGI,NCI-H23 lung,> 100 µM
same,GI50,BT-549 breast,34.9 µM
same,TGI,BT-549 breast,> 100 µM
same,GI50,HT29 colon,20.5 µM
same,TGI,HT29 colon,> 100 µM
same,GI50,OVCAR-4 ovarian,> 100 µM
same,TGI,OVCAR-4 ovarian,> 100 µM
same,GI50,OVCAR-3 ovarian,> 100 µM
same,TGI,OVCAR-3 ovarian,> 100 µM
same,GI50,SK-MEL-2 melanoma,> 100 µM
same,TGI,SK-MEL-2 melanoma,> 100 µM
same,GI50,UO-31 renal,27.9 µM
same,TGI,UO-31 renal,> 100 µM
same,GI50,OVCAR-8 ovarian,> 100 µM
same,TGI,OVCAR-8 ovarian,> 100 µM
same,GI50,A549 NSCLC,> 100 µM
same,TGI,A549 NSCLC,> 100 µM
same,GI50,IGROV1 ovarian,> 100 µM
same,TGI,IGROV1 ovarian,> 100 µM
same,GI50,OVCAR-5 ovarian,> 100 µM
same,TGI,OVCAR-5 ovarian,> 100 µM
same,GI50,HCT-116 colon,41.8 µM
same,TGI,HCT-116 colon,> 100 µM
same,GI50,MALME-3M melanoma,> 100 µM
same,TGI,MALME-3M melanoma,> 100 µM
same,GI50,HCT-15 colon,23.6 µM
same,TGI,HCT-15 colon,> 100 µM
same,GI50,SNB-75 CNS,> 100 µM
same,TGI,SNB-75 CNS,> 100 µM
same,GI50,KM12 colon,33.3 µM
same,TGI,KM12 colon,> 100 µM
same,GI50,SK-MEL-28 melanoma,> 100 µM
same,TGI,SK-MEL-28 melanoma,> 100 µM
same,GI50,CAKI-1 renal,> 100 µM
same,TGI,CAKI-1 renal,> 100 µM
same,GI50,UACC-62 melanoma,67.6 µM
same,TGI,UACC-62 melanoma,> 100 µM
same,GI50,SF-539 CNS,66.2 µM
same,TGI,SF-539 CNS,> 100 µM
same,GI50,TK-10 renal,> 100 µM
same,TGI,TK-10 renal,> 100 µM
same,GI50,HL-60(TB) leukemia,82.4 µM
same,TGI,HL-60(TB) leukemia,> 100 µM
same,GI50,786-0 renal,55.5 µM
same,TGI,786-0 renal,> 100 µM
same,GI50,NCI-H460 lung,66.9 µM
same,TGI,NCI-H460 lung,> 100 µM
same,GI50,U251 CNS,> 100 µM
same,TGI,U251 CNS,> 100 µM
same,GI50,SW-620 colon,> 100 µM
same,TGI,SW-620 colon,> 100 µM
same,GI50,SR leukemia,13.6 µM
same,TGI,SR leukemia,50.4 µM
same,GI50,SN12C renal,> 100 µM
same,TGI,SN12C renal,> 100 µM
same,GI50,SK-MEL-5 melanoma,17.8 µM
same,TGI,SK-MEL-5 melanoma,> 100 µM
same,GI50,SK-OV-3 ovarian,> 100 µM
same,TGI,SK-OV-3 ovarian,> 100 µM
same,GI50,LOX IMVI melanoma,27 µM
same,TGI,LOX IMVI melanoma,> 100 µM
same,GI50,HS 578T breast,> 100 µM
same,TGI,HS 578T breast,> 100 µM
same,GI50,MDA-MB-435,> 100 µM
same,TGI,MDA-MB-435,> 100 µM
same,GI50,HCC-2998 colon,35.2 µM
same,TGI,HCC-2998 colon,> 100 µM
same,GI50,MDA-MB-231 breast,60.2 µM
same,TGI,MDA-MB-231 breast,> 100 µM
same,GI50,NCI-H522 lung,61.8 µM
same,TGI,NCI-H522 lung,> 100 µM
same,GI50,MOLT-4 leukemia,29.8 µM
same,TGI,MOLT-4 leukemia,> 100 µM
same,GI50,M14 melanoma,27.4 µM
same,TGI,M14 melanoma,88.8 µM
same,GI50,SNB-19 CNS,> 100 µM
same,TGI,SNB-19 CNS,> 100 µM
same,GI50,COLO 205 colon,54.8 µM
same,TGI,COLO 205 colon,> 100 µM
same,GI50,SF-295 CNS,50.3 µM
same,TGI,SF-295 CNS,> 100 µM
same,GI50,NCI/ADR-RES ovarian,> 100 µM
same,TGI,NCI/ADR-RES ovarian,> 100 µM
same,GI50,ACHN renal,> 100 µM
same,TGI,ACHN renal,> 100 µM
same,GI50,MCF7 breast,57 µM
same,TGI,MCF7 breast,> 100 µM
same,GI50,DU-145 prostate,> 100 µM
same,TGI,DU-145 prostate,> 100 µM
same,GI50,SF-268 CNS,> 100 µM
same,TGI,SF-268 CNS,> 100 µM
same,GI50,K-562 leukemia,26.3 µM
same,TGI,K-562 leukemia,74.1 µM
same,GI50,RXF 393 renal,> 100 µM
same,TGI,RXF 393 renal,> 100 µM
CSC(=S)NCc1cn(C)c2ccccc12,GI50,NCI-H226 lung,23.4 µM
same,TGI,NCI-H226 lung,64.8 µM
same,GI50,A498 renal,12.8 µM
same,TGI,A498 renal,29.2 µM
same,GI50,EKVX NSCLC,32 µM
same,TGI,EKVX NSCLC,> 100 µM
same,GI50,T-47D breast,29.5 µM
same,TGI,T-47D breast,> 100 µM
same,GI50,NCI-H23 lung,29.8 µM
same,TGI,NCI-H23 lung,87.7 µM
same,GI50,BT-549 breast,20 µM
same,TGI,BT-549 breast,54.2 µM
same,GI50,HT29 colon,65.3 µM
same,TGI,HT29 colon,> 100 µM
same,GI50,OVCAR-4 ovarian,62 µM
same,TGI,OVCAR-4 ovarian,> 100 µM
same,GI50,OVCAR-3 ovarian,23.4 µM
same,TGI,OVCAR-3 ovarian,80.4 µM
same,GI50,SK-MEL-2 melanoma,34.2 µM
same,TGI,SK-MEL-2 melanoma,> 100 µM
same,GI50,UO-31 renal,22.3 µM
same,TGI,UO-31 renal,> 100 µM
same,GI50,OVCAR-8 ovarian,24.2 µM
same,TGI,OVCAR-8 ovarian,90.6 µM
same,GI50,A549 NSCLC,38.1 µM
same,TGI,A549 NSCLC,> 100 µM
same,GI50,IGROV1 ovarian,26.1 µM
same,TGI,IGROV1 ovarian,> 100 µM
same,GI50,OVCAR-5 ovarian,44.1 µM
same,TGI,OVCAR-5 ovarian,> 100 µM
same,GI50,HCT-116 colon,50.5 µM
same,TGI,HCT-116 colon,> 100 µM
same,GI50,UACC-257 melanoma,54.8 µM
same,TGI,UACC-257 melanoma,> 100 µM
same,GI50,MALME-3M melanoma,24.6 µM
same,TGI,MALME-3M melanoma,92.4 µM
same,GI50,PC-3 prostate,33 µM
same,TGI,PC-3 prostate,> 100 µM
same,GI50,CCRF-CEM leukemia,24.4 µM
same,TGI,CCRF-CEM leukemia,> 100 µM
same,GI50,HCT-15 colon,26.8 µM
same,TGI,HCT-15 colon,> 100 µM
same,GI50,SNB-75 CNS,51.4 µM
same,TGI,SNB-75 CNS,> 100 µM
same,GI50,KM12 colon,33.1 µM
same,TGI,KM12 colon,> 100 µM
same,GI50,SK-MEL-28 melanoma,> 100 µM
same,TGI,SK-MEL-28 melanoma,> 100 µM
same,GI50,CAKI-1 renal,20.8 µM
same,TGI,CAKI-1 renal,61.3 µM
same,GI50,UACC-62 melanoma,20.1 µM
same,TGI,UACC-62 melanoma,42.7 µM
same,GI50,SF-539 CNS,25 µM
same,TGI,SF-539 CNS,62.3 µM
same,GI50,TK-10 renal,28.7 µM
same,TGI,TK-10 renal,> 100 µM
same,GI50,786-0 renal,24.8 µM
same,TGI,786-0 renal,> 100 µM
same,GI50,NCI-H460 lung,29.4 µM
same,TGI,NCI-H460 lung,> 100 µM
same,GI50,U251 CNS,28.6 µM
same,TGI,U251 CNS,> 100 µM
same,GI50,SW-620 colon,30.1 µM
same,TGI,SW-620 colon,> 100 µM
same,GI50,SN12C renal,26.9 µM
same,TGI,SN12C renal,80.8 µM
same,GI50,SK-MEL-5 melanoma,13.9 µM
same,TGI,SK-MEL-5 melanoma,32.8 µM
same,GI50,SK-OV-3 ovarian,30.2 µM
same,TGI,SK-OV-3 ovarian,> 100 µM
same,GI50,LOX IMVI melanoma,26.5 µM
same,TGI,LOX IMVI melanoma,94.1 µM
same,GI50,HS 578T breast,26.3 µM
same,TGI,HS 578T breast,73.6 µM
same,GI50,MDA-MB-435,27.8 µM
same,TGI,MDA-MB-435,> 100 µM
same,GI50,HOP-62 NSCLC,49.4 µM
same,TGI,HOP-62 NSCLC,> 100 µM
same,GI50,HCC-2998 colon,25.1 µM
same,TGI,HCC-2998 colon,98.7 µM
same,GI50,MDA-MB-231 breast,15.4 µM
same,TGI,MDA-MB-231 breast,44.5 µM
same,GI50,NCI-H522 lung,21.5 µM
same,TGI,NCI-H522 lung,86.1 µM
same,GI50,M14 melanoma,64.8 µM
same,TGI,M14 melanoma,> 100 µM
same,GI50,SNB-19 CNS,40.3 µM
same,TGI,SNB-19 CNS,> 100 µM
same,GI50,COLO 205 colon,17.5 µM
same,TGI,COLO 205 colon,65.9 µM
same,GI50,SF-295 CNS,33.5 µM
same,TGI,SF-295 CNS,> 100 µM
same,GI50,HOP-92 NSCLC,23.9 µM
same,TGI,HOP-92 NSCLC,> 100 µM
same,GI50,NCI/ADR-RES ovarian,30 µM
same,TGI,NCI/ADR-RES ovarian,> 100 µM
same,GI50,ACHN renal,21.9 µM
same,TGI,ACHN renal,> 100 µM
same,GI50,MCF7 breast,24.3 µM
same,TGI,MCF7 breast,90.9 µM
same,GI50,DU-145 prostate,29.1 µM
same,TGI,DU-145 prostate,> 100 µM
same,GI50,SF-268 CNS,23.5 µM
same,TGI,SF-268 CNS,68 µM
same,GI50,RPMI-8226 leukemia,30.7 µM
same,TGI,RPMI-8226 leukemia,> 100 µM
same,GI50,RXF 393 renal,17.9 µM
same,TGI,RXF 393 renal,59.6 µM
